Our source for the IC50 values is patent US12371428B2 (Exelixis, Inc., priority 2019, dated 2025).

Assay [1] concerns the target Human MET (residues 956-1390) (Homo sapiens (Human), UniProt P08581). Put plainly: Human Met kinase assay, HTRF KinEase (Example D-2). In kind it is biochemical. The following applies: protocol of Example D-2 (other compounds); read-out: c-Met IC50. In short, it runs like this: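 IC50 values come from a 4-parameter logistic fit of the […] fluorescence ratio, set between DMSO (100%) and reference compound at 1 μM (0%). Reactions held MET 956-1390 at 0.1 ng/well, ATP at Km, biotinylated peptide, 5 mM MgCl2, 1 mM MnCl2, 1 mM DTT and 3% DMSO, and ran 40 min at room temperature before streptavidin-XL665/Eu-antibody detection.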

Assay [2] deals with Met (phospho-Met, HGF-stimulated PC-3 prostate cancer cells) (Homo sapiens (Human), UniProt P08581). Nature of the assay: Met autophosphorylation ELISA in PC-3 cells (Example F). To be noted: cellular activity; Met autophosphorylation ELISA in PC-3 cells; read-out: c-Met IC50. Type of assay: cell-based. The procedure, abridged: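 Compounds were tested on HGF-stimulated PC-3 cells. After 24 h culture and 3 h serum starvation, cells got compound for 1 h and 100 ng/mL HGF for 10 min, and Met tyrosine phosphorylation was measured by ELISA.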
Sequence of Met (phospho-Met, HGF-stimulated PC-3 prostate cancer cells) (P08581 25-1390): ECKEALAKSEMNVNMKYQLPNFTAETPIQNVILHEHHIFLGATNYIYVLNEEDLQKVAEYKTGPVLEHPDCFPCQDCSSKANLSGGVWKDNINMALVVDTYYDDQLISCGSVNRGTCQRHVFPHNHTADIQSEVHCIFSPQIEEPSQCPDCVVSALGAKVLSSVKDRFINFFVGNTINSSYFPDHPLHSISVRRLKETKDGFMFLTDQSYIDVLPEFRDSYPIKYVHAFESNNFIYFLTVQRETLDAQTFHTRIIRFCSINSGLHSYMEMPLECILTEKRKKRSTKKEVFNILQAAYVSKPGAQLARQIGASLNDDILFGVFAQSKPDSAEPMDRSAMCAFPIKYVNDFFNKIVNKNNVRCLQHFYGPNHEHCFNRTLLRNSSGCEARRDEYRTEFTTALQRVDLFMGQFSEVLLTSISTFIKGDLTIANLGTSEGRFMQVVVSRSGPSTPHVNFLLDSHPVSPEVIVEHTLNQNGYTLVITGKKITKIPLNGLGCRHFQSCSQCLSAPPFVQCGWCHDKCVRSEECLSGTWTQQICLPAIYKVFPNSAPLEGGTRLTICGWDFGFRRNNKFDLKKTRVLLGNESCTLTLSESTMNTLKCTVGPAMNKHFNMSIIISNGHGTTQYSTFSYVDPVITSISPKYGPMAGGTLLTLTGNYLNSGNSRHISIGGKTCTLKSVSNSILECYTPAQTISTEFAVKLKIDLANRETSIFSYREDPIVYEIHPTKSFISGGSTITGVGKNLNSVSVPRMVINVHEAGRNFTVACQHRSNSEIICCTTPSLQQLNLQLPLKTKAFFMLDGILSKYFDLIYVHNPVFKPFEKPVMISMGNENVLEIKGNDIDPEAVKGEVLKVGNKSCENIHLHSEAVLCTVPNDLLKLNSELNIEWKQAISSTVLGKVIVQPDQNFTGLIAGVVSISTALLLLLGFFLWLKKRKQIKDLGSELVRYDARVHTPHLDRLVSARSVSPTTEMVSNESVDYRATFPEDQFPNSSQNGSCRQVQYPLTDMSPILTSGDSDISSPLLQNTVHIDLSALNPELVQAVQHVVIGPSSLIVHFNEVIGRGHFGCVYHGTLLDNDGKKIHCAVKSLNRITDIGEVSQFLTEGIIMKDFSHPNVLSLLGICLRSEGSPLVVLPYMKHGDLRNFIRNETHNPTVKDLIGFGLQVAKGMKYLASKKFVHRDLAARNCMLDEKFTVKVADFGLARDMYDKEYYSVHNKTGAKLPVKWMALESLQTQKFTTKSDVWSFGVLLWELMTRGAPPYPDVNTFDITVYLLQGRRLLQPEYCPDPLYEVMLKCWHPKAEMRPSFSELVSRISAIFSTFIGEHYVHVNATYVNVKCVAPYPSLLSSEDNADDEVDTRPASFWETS
(In general: An ELISA detects its analyte on a solid surface through an enzyme-linked reagent.)

Structures are written as SMILES. A value given as a limit tells only on which side of the number the result lay.

Sequence of Human MET (residues 956-1390) (P08581 956-1390): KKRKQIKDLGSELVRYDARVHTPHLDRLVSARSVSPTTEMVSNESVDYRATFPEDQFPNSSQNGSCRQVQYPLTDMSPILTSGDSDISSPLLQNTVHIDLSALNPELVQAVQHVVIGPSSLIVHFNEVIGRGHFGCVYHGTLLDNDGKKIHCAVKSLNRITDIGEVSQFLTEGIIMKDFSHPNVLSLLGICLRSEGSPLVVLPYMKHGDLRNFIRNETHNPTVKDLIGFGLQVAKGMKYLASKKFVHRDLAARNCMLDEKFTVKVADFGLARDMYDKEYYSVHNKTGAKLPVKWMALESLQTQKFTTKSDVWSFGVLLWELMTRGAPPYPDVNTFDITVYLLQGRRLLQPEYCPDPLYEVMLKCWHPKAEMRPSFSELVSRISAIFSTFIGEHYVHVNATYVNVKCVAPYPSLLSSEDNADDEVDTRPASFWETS

For the compound `CCn1cc(C(=O)Nc2ccc(Oc3ccnc4cc(OC)c(OC)nc34)c(F)c2)c(=O)c(-c2ccc(F)cc2C)c1CO` [Compound 283, N-[4-[(6,7-Dimethoxy-1,5-naphthyridin-4-yl)oxy]-3-fluorophenyl]-1-ethyl-5-(4-fluoro-2-methylphenyl)-6-(hydroxymethyl)-4-oxopyridine-3-carboxamide], the concentration for half-maximal inhibition (IC50) in assay [1] and in assay [2] was below 100 nM in each case.

On to `CCn1cc(C(=O)Nc2ccc(Oc3ccnc4cc(OC)c(OC)nc34)cc2)c(=O)c(-c2ccc(F)cc2C)c1CO` [Compound 284, N-[4-[(6,7-Dimethoxy-1,5-naphthyridin-4-yl)oxy]phenyl]-1-ethyl-5-(4-fluoro-2-methylphenyl)-6-(hydroxymethyl)-4-oxopyridine-3-carboxamide], for which the IC50 in assay [1] and in assay [2] was below 100 nM throughout.

Turning to `CCn1cc(C(=O)Nc2ccc(Oc3ccnc4cc(OC)cnc34)c(F)c2)c(=O)c(-c2ccc(F)cc2C)c1CO` [Compound 285, 1-Ethyl-N-[3-fluoro-4-[(7-methoxy-1,5-naphthyridin-4-yl)oxy]phenyl]-5-(4-fluoro-2-methylphenyl)-6-(hydroxymethyl)-4-oxopyridine-3-carboxamide], the IC50 in assay [1] and in assay [2] was below 100 nM each time.

As to `COc1cc2nccc(Oc3ccc(NC(=O)c4c(C)ccn(-c5ccc(F)cc5)c4=O)cc3F)c2nc1OC` [Compound 286, N-[4-[(6,7-Dimethoxy-1,5-naphthyridin-4-yl)oxy]-3-fluorophenyl]-1-(4-fluorophenyl)-4-methyl-2-oxopyridine-3-carboxamide], the IC50 in assay [1] and in assay [2] was below 100 nM each time.

For the compound `COc1ccc2nccc(Oc3ccc(NC(=O)c4c(C)ccn(-c5ccc(F)cc5)c4=O)cc3F)c2n1` [Compound 287, N-[3-Fluoro-4-[(6-methoxy-1,5-naphthyridin-4-yl)oxy]phenyl]-1-(4-fluorophenyl)-4-methyl-2-oxopyridine-3-carboxamide], the IC50 – broadly, the concentration needed to halve the response being measured – in assay [1] was 100 to 300 nM; in assay [2], below 100 nM.

As to `COc1cc2nccc(Oc3ccc(NC(=O)c4c(C)cc(C)n(-c5ccc(F)cc5)c4=O)cc3)c2nc1OC` [Compound 288, N-[4-[(6,7-Dimethoxy-1,5-naphthyridin-4-yl)oxy]phenyl]-1-(4-fluorophenyl)-4,6-dimethyl-2-oxopyridine-3-carboxamide], the IC50 in assay [1] and in assay [2] was below 100 nM each time.

Turning to `COc1cnc2c(Oc3ccc(NC(=O)c4c(C)cc(C)n(-c5ccc(F)cc5)c4=O)cc3)ccnc2c1` [Compound 289, 1-(4-Fluorophenyl)-N-[4-[(7-methoxy-1,5-naphthyridin-4-yl)oxy]phenyl]-4,6-dimethyl-2-oxopyridine-3-carboxamide], the IC50 in assay [1] and in assay [2] was below 100 nM each time.

`COc1ccc2nccc(Oc3ccc(NC(=O)c4c(C)cc(C)n(-c5ccc(F)cc5)c4=O)cc3)c2n1` [Compound 290, 1-(4-Fluorophenyl)-N-[4-[(6-methoxy-1,5-naphthyridin-4-yl)oxy]phenyl]-4,6-dimethyl-2-oxopyridine-3-carboxamide]: the concentration for half-maximal inhibition (IC50) in assay [1] was 100 to 300 nM; in assay [2], below 100 nM.

Turning to `COc1cnc2c(Oc3ccc(NC(=O)c4cccn(-c5ccc(F)cc5)c4=O)cc3F)ccnc2c1` [Compound 291, N-[3-Fluoro-4-[(7-methoxy-1,5-naphthyridin-4-yl)oxy]phenyl]-1-(4-fluorophenyl)-2-oxopyridine-3-carboxamide], the half-inhibitory concentration (IC50) in assay [1] and in assay [2] was below 100 nM throughout.

As to `COc1ccc2nccc(Oc3ccc(NC(=O)c4cccn(-c5ccc(F)cc5)c4=O)cc3F)c2n1` [Compound 292, N-[3-Fluoro-4-[(6-methoxy-1,5-naphthyridin-4-yl)oxy]phenyl]-1-(4-fluorophenyl)-2-oxopyridine-3-carboxamide], the IC50 in assay [1] and in assay [2] was below 100 nM each time.
